# Measured values taken from patent publication EP4643861A1, “A HALOGENATED-HETEROARYL KINASE INHBITOR FOR TREATING SOFT TISSUE SARCOMA AND VASCULAR TUMORS” (iOmx Therapeutics AG, priority 2024, dated 2025).
# Tests used:
# [1] = system: Human Patient-Derived Xenograft (PDX) Angiosarcoma; test: E9 monotherapy efficacy in Human Patient-Derived Xenograft (PDX) Angiosarcoma model; assay type: in vivo, immuno-deficient NOD scid gamma (NOG) mice; details: BID × 23, termination at day 23
# Text: This Angiosarcoma PDX model was used for preclinical evaluation of E9 in Angiosarcoma due to the retention of tumor heterogeneity and biological characteristics. Additionally, due to the rare indication, no murine syngeneic or human xenograft models are available.
# Briefly, immuno-deficient NOD scid gamma (NOG) mice, were housed in a controlled environment conducive to tumor growth. Human PDX tumor samples, obtained from a patient with Angiosarcoma (Epitheloid AS […]), were implanted subcutaneously into the mice. Tumor growth was monitored using non-invasive caliper method and was calculated by the following formula: volume = (width)2 × (length)/2. Animals were randomized into treatment groups at a tumor volume (TV) of ~160mm3 (Table 1). Treatment started after randomization twice daily until termination at day 23 when Vehicle animals reached termination criteria due to TV. Table 1: Example treatment groups.
# [2] = system: secondary radiation-induced cutaneous angiosarcoma; test: Treatment of a secondary angiosarcoma in a patient (dose escalation study); assay type: in vivo, human
# Procedure: Clinical responder patient suffered from a secondary radiation-induced cutaneous angiosarcoma. The patient, who previously received radiotherapy in context of a treatment of breast cancer, developed secondary angiosarcoma. The angiosarcoma was treated with chemotherapy including paclitaxel, doxorubicin and cyclophosphamide the patient developed treatment resistance to the chemotherapy. In the following the patient received E9 in context of a dose excalation study in which E9 was administered orally every 12h (i.e. twice daily) for 28 days per treatment cycle. E9 daily doses were escalated from 10mg to 30mg and finally 60mg E9 during the then following continuous treatment.
smiles,measurement,setting,value
"Cc1nc(Nc2ncc(C(=O)Nc3c(CF)csc3Cl)s2)cc(N2CCN(C)CC2)n1 [E9, N-(2-chloro-4-(fluoromethyl)thiophen-3-yl)-2-((2-methyl-6-(4-methylpiperazin-1-yl)pyrimidin-4-yl)amino)thiazole-5-carboxamide]",tumor growth inhibition (TGI),"[1]; 25mg/kg E9, p.o.",55%
same,tumor size at termination compared to treatment start,"[1]; 50 mg/kg E9, p.o.",tumor regression
same,duration of maintained near-complete response,[2]; further treatment with 60mg daily E9,over 10 months
same,tolerability,"[2]; orally every 12h, 28 days per cycle, daily doses escalated from 10mg to 30mg and finally 60mg",well tolerated
same,clinical response (reduction of cutaneous lesions),"[2]; patient resistant to paclitaxel, doxorubicin and cyclophosphamide, E9 orally twice daily",near-complete response
